Data: patent publication US6384061B1, “Hydantoin compounds and methods related thereto” (LG Chemical Ltd., priority 2000, dated 2002)

Key:
[1] = biological target: T1, Geranylgeranyl transferase (Bos taurus, UniProt P29702+Q5EAD5); assay: Geranylgeranyl transferase inhibiting activity (geranylgeranyl pyrophosphate, Ras-CVIL substrate); assay type: biochemical; details: geranylgeranyl transferase purified from bovine brain, read-out: GGtase IC50
T1 construct: Geranylgeranyl transferase was purified from bovine brain; from tissue; host or cells: bovine brain
Method in brief: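 Bovine-brain-purified enzyme run as in the farnesyl transferase assay, with geranylgeranyl pyrophosphate and Ras-CVIL substrate protein under similar reaction conditions.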

[2] = tested on: intracellular Ras farnesyl transferase, Rat2 cell line; assay: Intracellular Ras farnesyl transferase inhibiting activity in transformed Rat2 cells (35S-methionine labelling, Y13-259 immunoprecipitation, SDS-PAGE); assay type: cell-based; details: Rattus norvegicus; transformed Rat2 fibroblast cell line; concentration inhibiting 50% of farnesyl binding of Ras protein; read-out: Ftase CIC50
Method in brief: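 Rat2 fibroblasts transformed with H-Ras, or with H-Ras carrying the K-Ras polybasic lysine C-terminus, were treated with compound (1% DMSO). After 4 h they were labelled for 20 h with 150 μCi/ml 35S-methionine. Lysates were immunoprecipitated with Y13-259, run on 13.5% SDS-PAGE and autoradiographed; CIC50 is the concentration halving farnesylated versus unfarnesylated Ras band intensity.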

[3] = biological target: T2, Ras farnesyl transferase (Homo sapiens, UniProt P49354+P49356); assay: Ras farnesyl transferase inhibiting activity (filter-binding, tritium-farnesylpyrophosphate, Ras-CVLS substrate); assay type: biochemical; details: recombinant Ras farnesyl transferase, 30 minutes at 37° C., read-out: Ftase IC50
T2 construct: made in house

Row | SMILES | IC50 [1] [µM] | IC50 [3] [µM] | IC50 [2] [µM]
1 | CC1(c2cccc3ccccc23)C(=O)N(CCCn2ccnc2)C(=O)N1Cc1cccnc1 (stereo not drawn) [Compound 18, 1-(3-pyridylmethyl)-3-(3-imidazol-1-yl-propyl)-5-methyl-5-naphthalen-1-yl-imidazolidin-2,4-dione] | > 10 | 0.6 | < 20
2 | CC1(c2cccc3ccccc23)C(=O)N(CCCc2cnc[nH]2)C(=O)N1CC(=O)NC(Cc1cccs1)C(=O)O (stereo not drawn) [Compound 9, 2-(2-{3-[3-(3H-imidazol-4-yl)-propyl]-5-methyl-5-naphthalen-1-yl-2,4-dioxo-imidazolidin-1-yl}-acetamino)-3-thiophen-2-yl-propionic acid] | 80 | 0.015 | < 1
3 | CC1(c2cccc3ccccc23)C(=O)N(CCCn2ccnc2)C(=O)N1C(=O)Nc1cccc(C#N)c1 (stereo not drawn) [Compound 66, 3-(3-imidazol-1-yl-propyl)-5-methyl-5-naphthalen-1-yl-2,4-dioxo-imidazolidin-1-carboxylic acid (3-cyano-phenyl)-amide] | > 10 | 0.2 | < 20
4 | CC1(c2cccc3ccccc23)C(=O)N(CCCn2ccnc2)C(=O)N1Cc1ccc(C#N)cc1 (stereo not drawn) [Compound 33, 4-[3-(3-imidazol-1-yl-propyl)-5-methyl-5-naphthalen-1-yl-2,4-dioxo-imidazolidin-1-ylmethyl]-benzonitrile] | > 10 | 1.3 | < 20
5 | COC(=O)C(CCSC)NC(=O)CN1C(=O)N(CCCc2c[nH]cn2)C(=O)C1(C)c1cccc2ccccc12 (stereo not drawn) [Compound 1, 2-(2-{3-[3-(1H-imidazol-4-yl)-propyl]-5-methyl-5-naphthalen-1-yl-2,4-dioxo-imidazolidin-1-yl}-acetylamino)-4-methylsulfanyl-butyric acid methyl ester] | > 10 | 0.5 | 1
6 | CC1(c2cccc3ccccc23)C(=O)N(CCCn2ccnc2)C(=O)N1Cc1cccc(C(=O)N2CCSCC2)c1 (stereo not drawn) [Compound 44, 3-(3-imidazol-1-yl-propyl)-1-[3-(thiomorpholine-4-carbonyl)-benzyl]-5-methyl-5-naphthalen-1-yl-imidazolidin-2,4-dione] | > 10 | 8 | < 20
7 | COCCNC(=O)c1ccc(CN2C(=O)N(CCCn3ccnc3)C(=O)C2(C)c2cccc3ccccc23)cc1 (stereo not drawn) [Compound 41, 4-[3-(3-imidazol-1-yl-propyl)-5-methyl-5-naphthalen-1-yl-2,4-dioxo-imidazolidin-1-ylmethyl]-N-(2-methoxy-ethyl)-benzamide] | > 10 | 0.53 | < 20
8 | CC1(c2cccc3ccccc23)C(=O)N(CCCn2ccnc2)C(=O)N1Cc1ccc(C(=O)N2CCOCC2)cc1 (stereo not drawn) [Compound 40] | > 10 | 1.4 | < 20
9 | CC1(c2cccc3ccccc23)C(=O)N(CCCn2ccnc2)C(=O)N1Cc1ccc(CN)cc1 (stereo not drawn) [Compound 34, 1-(4-aminomethyl-benzyl)-3-(3-imidazol-1-yl-propyl)-5-methyl-5-naphthalen-1-yl-imidazolidin-2,4-dione] | > 10 | 2.1 | < 20
10 | CC1(c2cccc3ccccc23)C(=O)N(CCCn2ccnc2)C(=O)N1C(=O)N1CCOCC1 (stereo not drawn) [Compound 65, 3-(3-imidazol-1-yl-propyl)-5methyl-1-(morpholine-4-carbonyl)-5-naphthalen-1-yl-imidazolidin-2,4-dione] | > 10 | 4.5 | < 20
11 | CC1(c2cccc3ccccc23)C(=O)N(CCCn2ccnc2)C(=O)N1Cc1ccc(Oc2ccccc2)cc1 (stereo not drawn) [Compound 24, 3-(3-imidazol-1-yl-propyl)-5-methyl-5-naphthalen-1-yl-1-(4-phenoxy-benzyl)-imidazolidin-2,4-dione] | > 10 | 0.75 | < 20
12 | COC(=O)C(CCSC)NC(=O)CN1C(=O)N(Cc2cnc[nH]2)C(=O)C1(C)c1cccc2ccccc12 (stereo not drawn) [Compound 5, 2-{2-[3-(3H-imidazol-4-yl-methyl)-5-methyl-5-naphthaten-1-yl-2,4-dioxo-imidazolidin-1-yl]-acetylamino}-4-methylsulfanyl-butyric acid methyl ester] | > 10 | 190 | 10

Continued, in another order:

Row | IC50 [1] [µM] | IC50 [3] [µM] | SMILES | IC50 [2] [µM]
13 | > 10 | 0.044 | CN1C(=O)N(CCCc2cncn2Cc2ccc(C#N)cc2)C(=O)C1(C)c1cccc2ccccc12 (stereo not drawn) [Compound 46, 4-{5-[3-(3-methyl-4-methyl-4-naphthalen-1-yl-2,5-dioxo-imidazolidin-1-yl)-propyl]-imidazol-1-ylmethyl}-benzonitrile] | < 20
14 | > 10 | 0.08 | CC1(c2cccc3ccccc23)C(=O)N(CCCc2cncn2Cc2ccc(C#N)cc2)C(=O)N1C(=O)c1ccco1 (stereo not drawn) [Compound 56, 4-(5-{3-[3-(furan-2-carbonyl)-4-methyl-4-naphthalen-1-yl-2,5-dioxo-imidazolidin-1-yl]-propyl}-imidazol-1-ylmethyl)-benzonitrile] | < 20
15 | > 10 | 0.05 | CC1(c2cccc3ccccc23)C(=O)N(Cc2cncn2Cc2ccc(C#N)cc2)C(=O)N1Cc1cccc(C#N)c1 (stereo not drawn) [Compound 63] | < 20
16 | > 10 | 0.019 | CC1(c2cccc3ccccc23)C(=O)N(CCCc2cncn2Cc2ccc(C#N)cc2)C(=O)N1CC(=O)O (stereo not drawn) [Compound 52, (3-{3-[3-(4-cyanobenzyl)-3H-imidazol-4-yl]-propyl}-5-methyl-5-naphthalen-1-yl-2,4-dioxo-imidazolidin-1-yl)-acetic acid] | < 20
17 | > 10 | 0.04 | COC(=O)C[C@H]1C(=O)N(Cc2cncn2Cc2ccc(C#N)cc2)C(=O)N1Cc1cccc2ccccc12 [Compound 79, {1-[3-(4-cyano-benzyl)-3H-imidazol-4-ylmethyl]-3-naphthalen-1-ylmethyl-2,5-dioxo-imidazolidin-(4S)-yl}-acetic acid methyl ester] | < 10
18 | > 10 | 5 | CCOC(=O)CN1C(=O)N(CCCc2cncn2Cc2ccc(Br)cc2)C(=O)C1(C)c1cccc2ccccc12 (stereo not drawn) [Compound 70, (3-{3-[3-(4-bromo-benzyl)-3H-imidazol-4-yl]-propyl}-5-methyl-5-naphthalen-1-yl-2,4-dioxo-imidazolidin-1-yl)-acetic acid ethyl ester] | < 20
19 | > 10 | 0.019 | CCOC(=O)CN1C(=O)N(CCCc2cncn2Cc2ccc(C#N)cc2)C(=O)C1(C)c1cccc2ccccc12 (stereo not drawn) [Compound 51, (3-{3-[3-(4-cyanobenzyl)-3H-imidazol-4-yl]-propyl}-5-methyl-5-naphthalen-1-yl-2,4-dioxo-imidazolidin-1-yl)-acetic acid ethyl ester] | < 20
20 | > 10 | 5.5 | CC1(c2cccc3ccccc23)NC(=O)N(CCCc2cncn2Cc2ccc(C#N)cc2)C1=O (stereo not drawn) [Compound 45, 4-{5-[3-(4-methyl-4-naphthalen-1-yl-2,5-dioxo-imidazolidin-1-yl)-propyl]-imidazol-1-ylmethyl}benzonitrile] | < 20
21 | > 10 | 0.8 | O=C1CN(c2cccc3ccccc23)C(=O)N1Cc1cncn1Cc1ccc(Cl)cc1 [Compound 73, 3-[3-(4-chloro-benzyl)-3H-imidazol-4-ylmethyl]-1-naphthalen-1-yl-imidazolidin-2,4-dione] | < 10
